{"source": "paper PMC6154976", "about": "“The potential HLA Class I-restricted epitopes derived from LeIF and TSA of Leishmania donovani evoke anti-leishmania CD8+ T lymphocyte response” (Scientific Reports, 2018)", "key": {"[1]": {"biological_target": "HLA-A*0201 molecule on T2 cells (Homo sapiens, UniProt P04439, D140Y/D185E/D98H/E176V/E277Q/G131W/G231S/I119V/I121R/I166T/I218V/L300P/L318F/N151K/N90K/P208A/P217A/Q86G/Q94H/R138H/R169H/T345S)", "assay": "Peptide-binding assay (HLA stabilization assay, T2 cell line)", "type": "cell-based", "conditions": "20 μg/mL peptide, 20 hours, FI more than 1 = strong binding, Fig. S2; for fluorescence index (FI) value: T2 cells 2 × 10^5/well, serum-free RPMI, 37 °C, FACS, PE anti-HLA-A 02 (BB7.2), triplicate", "description": "The efficiency of the shortlisted epitopes to stabilize the HLA-A 02 allele was measured by HLA stabilization assay using TAP-deficient human cell line that express HLA-A2 (T2 cell line) according to our previously described methodology with certain modifications. Briefly, T2 cells (2 × 10^5/well) were cultured with 20 μg/mL of individual peptides in serum-free RPMI medium for 20 hours at 37 °C in 5% CO2. The HLA stabilization assay was performed in triplicate for each peptide. The tumor HLA A2 bound 10mer peptide was used as positive control. The expression of HLA-A 02 on T2 cells was measured by PE-conjugated mouse anti-human HLA-A 02 monoclonal antibody (clone: BB7.2; Pharmingen), the samples were acquired by FACS Calibur and analyzed by CellQuest software (BD Biosciences). The binding affinity of each peptide was measured by a fluorescence index: FI = (mean PE fluorescence with the given peptide−mean PE fluorescence without peptide)/(mean […] fluorescence without peptide). The epitope with a fluorescence index (FI) more than 1 was considered as strong binding affinity epitopes."}, "[2]": {"tested_on": "PBMCs from HLA A2 negative VL treated subjects", "assay": "Intracellular IFN-γ from CD8+ T cells (FACS)", "type": "cell-based, human", "conditions": "six HLA A2 negative subjects, overnight plus 6 h brefeldin-A", "description": "To evaluate the ability of the selected epitopes to trigger the immune cells by CD8+ T cell dependent manner, PBMCs (1 × 10^6/ml) from five HLAA2 positive VL treated subjects were incubated for overnight in the presence or absence of peptide at 37 °C and 5% CO2. Additionally, six HLA A2 negative VL treated subjects were also considered for this study. Stimulation with SLA was run in parallel to all experiments as described previously. After overnight incubation followed by 6 h incubation with brefeldin-A (1 mg/ml), cells were harvested, washed with PBS, and stained with anti-CD3-PerCP (BD Biosciences) and anti-CD8-FITC(BD Biosciences) conjugated antibodies for 30 min at 4 °C. The cells were then washed with stain buffer, fixed and permeabilized Cytofix-Cytoperm buffer (BD Biosciences) for 20 minutes at 4 °C. The intracellular level of IFN-γ was stained with anti-IFN-γ PE-conjugated antibody (BD Biosciences) for 30 minutes and washed with perm wash buffer (BD Biosciences). A logical gate set using was used to measure the co-expression of intracellular CD8+ ve IFN-γ. At least 30 000 cells were acquired for each analysis, and the results are shown in percentage gated value (% gated)."}}, "note": "“Also recorded” adds a separate entry of the source.", "data": [{"sequence": "RLLEAFQFV [P7]", "values": [{"measurement": "fluorescence index (FI) value", "setting": "[1]", "result": "above 2"}, {"measurement": "binding to / stabilization of HLA-A*0201 on T2 cells, in words", "setting": "[1]", "result": "stabilized the HLA A2; also recorded: strongly bound"}, {"measurement": "intracellular CD3+ ve CD8+ ve IFN-γ", "setting": "[2]", "result": "triggered CD3+ ve CD8+ ve IFN-γ level; also recorded: enhanced CD3+ CD8+ IFN-γ"}]}, {"sequence": "VLLEKATIL [P2]", "values": [{"measurement": "fluorescence index (FI) value", "setting": "[1]", "result": "above 2"}, {"measurement": "binding to / stabilization of HLA-A*0201 on T2 cells, in words", "setting": "[1]", "result": "stabilized the HLA A2; also recorded: strongly bound"}]}, {"sequence": "TLDHLLVLL [P1]", "values": [{"measurement": "fluorescence index (FI) value", "setting": "[1]", "result": "above 2"}, {"measurement": "binding to / stabilization of HLA-A*0201 on T2 cells, in words", "setting": "[1]", "result": "stabilized the HLA A2; also recorded: strongly bound"}, {"measurement": "intracellular CD3+ ve CD8+ ve IFN-γ", "setting": "[2]", "result": "triggered the HLA A2-ve host immune cells by producing CD8+ IFN-γ; also recorded: triggered CD3+ ve CD8+ ve IFN-γ level; also recorded: enhanced CD3+ CD8+ IFN-γ"}]}, {"sequence": "SLARRKLLL [P3]", "values": [{"measurement": "binding to / stabilization of HLA-A*0201 on T2 cells, in words", "setting": "[1]", "result": "relatively weakly bound"}]}, {"sequence": "MLADKTKSI [P6]", "values": [{"measurement": "binding to / stabilization of HLA-A*0201 on T2 cells, in words", "setting": "[1]", "result": "relatively weakly bound"}]}, {"sequence": "SMDSEYAHL [P9]", "values": [{"measurement": "binding to / stabilization of HLA-A*0201 on T2 cells, in words", "setting": "[1]", "result": "relatively weakly bound"}]}, {"sequence": "KVLTLFAEV [P5]", "values": [{"measurement": "fluorescence index (FI) value", "setting": "[1]", "result": "above 2"}, {"measurement": "binding to / stabilization of HLA-A*0201 on T2 cells, in words", "setting": "[1]", "result": "stabilized the HLA A2; also recorded: strongly bound"}, {"measurement": "intracellular CD3+ ve CD8+ ve IFN-γ", "setting": "[2]", "result": "triggered the HLA A2-ve host immune cells by producing CD8+ IFN-γ; also recorded: triggered CD3+ ve CD8+ ve IFN-γ level; also recorded: enhanced CD3+ CD8+ IFN-γ"}]}, {"sequence": "FIIDPNGMV [P8]", "values": [{"measurement": "binding to / stabilization of HLA-A*0201 on T2 cells, in words", "setting": "[1]", "result": "relatively weakly bound"}]}, {"sequence": "LLLAEPFPV [P4]", "values": [{"measurement": "fluorescence index (FI) value", "setting": "[1]", "result": 1.81}, {"measurement": "binding to / stabilization of HLA-A*0201 on T2 cells, in words", "setting": "[1]", "result": "stabilized the HLA A2; also recorded: strongly bound"}, {"measurement": "intracellular CD3+ ve CD8+ ve IFN-γ", "setting": "[2]", "result": "triggered the HLA A2-ve host immune cells by producing CD8+ IFN-γ"}]}]}
